The values that follow come from PubChem BioAssay (NCI).

Several values for one entry are separate records, joined by “and”; a condition that tells them apart may be missing. Equal entries are not always repeated.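 A five-concentration, 48-hour dose response in 96-well plates underlies each endpoint, interpolated linearly between surrounding concentrations. GI50 is the concentration that inhibits growth by half. The concentration for full growth arrest is given as TGI.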

Test systems include SK-MEL-28 melanoma; SF-295 CNS; SK-MEL-5 melanoma; MDA-MB-231 breast; OVCAR-5 ovarian; TK-10 renal; HS 578T breast; HCT-15 colon; MCF7 breast; HCC-2998 colon.
Common to all, as to test: NCI tumour cell line growth inhibition, 48 h

Regarding `CC(C)(O)CCc1cccc(C(=O)c2cnn(-c3ccc(F)cc3)c2N)c1`, the GI50 in the experiment on SK-MEL-28 melanoma was greater than 25 µM; with SF-295 CNS it was greater than 25 µM; in the experiment with SK-MEL-5 melanoma, 13.5 µM; with MDA-MB-231 breast, greater than 25 µM; with OVCAR-5 ovarian it was greater than 25 µM; with TK-10 renal it was greater than 25 µM. The GI50 in the experiment on HS 578T breast, with HCT-15 colon, in the experiment on MCF7 breast and with HCC-2998 colon was greater than 25 µM in each case. Further, the TGI with SK-MEL-28 melanoma, in the experiment with SF-295 CNS, in the experiment with SK-MEL-5 melanoma, in the experiment on MDA-MB-231 breast, in the experiment on OVCAR-5 ovarian and with TK-10 renal was greater than 25 µM throughout. The TGI in the experiment with HS 578T breast, with HCT-15 colon, with MCF7 breast and with HCC-2998 colon was greater than 25 µM each time.
On to `CSc1nnc(-c2cc3c([nH]c4ccccc43)c(-c3cccc(O)c3)n2)n1-c1ccc(C)cc1`, for which the GI50 in the experiment on SK-MEL-28 melanoma is 2.23 µM; with SF-295 CNS, 2.59 µM; in the experiment with SK-MEL-5 melanoma it was 2.38 µM; with MDA-MB-231 breast, 3.31 µM; in the experiment with OVCAR-5 ovarian it was 17.2 µM; with TK-10 renal, 3.01 µM. Also, the GI50 in the experiment on HS 578T breast was 3.86 µM; with HCT-15 colon it was 3.55 µM; in the experiment with MCF7 breast, 2.5 µM; in the experiment with HCC-2998 colon, 12.3 µM. In addition, the TGI was determined as 7.74 µM in the experiment on SK-MEL-28 melanoma; 9.62 µM in the experiment on SF-295 CNS; 11.5 µM in the experiment on SK-MEL-5 melanoma; 15.8 µM in the experiment on MDA-MB-231 breast; 70.1 µM with OVCAR-5 ovarian; 9.64 µM in the experiment with TK-10 renal. The TGI was 72.1 µM with HS 578T breast, greater than 100 µM in the experiment with HCT-15 colon, greater than 100 µM with MCF7 breast and greater than 100 µM in the experiment with HCC-2998 colon.
As to `Cc1c(Cl)cccc1NC(=O)c1sc2nc3c(cc2c1N)C(=O)CCC3`, the GI50 in the experiment with SK-MEL-28 melanoma is 0.174 µM; in the experiment on SF-295 CNS, 0.0429 µM; in the experiment on SK-MEL-5 melanoma it was 0.13 µM; in the experiment with MDA-MB-231 breast it was 0.138 µM; with OVCAR-5 ovarian it was 0.283 µM; with TK-10 renal, 37.6 µM. Also, the GI50 with HS 578T breast was 0.0479 µM; in the experiment with HCT-15 colon, 0.0665 µM; in the experiment with MCF7 breast, 0.0452 µM; in the experiment with HCC-2998 colon, 0.201 µM. Besides, the TGI is greater than 100 µM with SK-MEL-28 melanoma; greater than 100 µM with SF-295 CNS; 2.78 µM with SK-MEL-5 melanoma; 16.5 µM in the experiment on MDA-MB-231 breast; greater than 100 µM with OVCAR-5 ovarian; greater than 100 µM in the experiment on TK-10 renal. The TGI in the experiment with HS 578T breast is greater than 58.2 µM; in the experiment with HCT-15 colon, greater than 100 µM; in the experiment on MCF7 breast, greater than 100 µM; in the experiment with HCC-2998 colon, greater than 60 µM.
For the compound `COc1cccc(N2CCN(c3ncnc4cc[nH]c34)CC2)c1`, the GI50 in the experiment on SK-MEL-28 melanoma was 10.7 µM; in the experiment with SF-295 CNS, 1.57 µM; in the experiment on SK-MEL-5 melanoma, 0.394 µM; in the experiment with MDA-MB-231 breast it was 79.9 µM; with OVCAR-5 ovarian, 43.6 µM; in the experiment with TK-10 renal, 25.5 µM. For the same compound, the GI50 is 35.7 µM in the experiment with HS 578T breast, 24.4 µM with HCT-15 colon, 2.65 µM in the experiment with MCF7 breast and 7.19 µM in the experiment on HCC-2998 colon. The TGI in the experiment on SK-MEL-28 melanoma was 62.3 µM; with SF-295 CNS it was 43 µM; in the experiment with SK-MEL-5 melanoma, 2.77 µM; with MDA-MB-231 breast, greater than 100 µM; in the experiment with OVCAR-5 ovarian, greater than 100 µM; with TK-10 renal it was greater than 100 µM. The TGI is greater than 100 µM with HS 578T breast, greater than 100 µM in the experiment with HCT-15 colon, 47.4 µM in the experiment with MCF7 breast and greater than 100 µM with HCC-2998 colon.
`COc1ccc(/C=C\c2cc(OC)c(OC)c(OC)c2)cc1OC(=O)CC(N)C(=O)O` (configuration not stated): the GI50 in the experiment on SK-MEL-28 melanoma is 0.000728 µM; in the experiment on SF-295 CNS, 0.000726 µM; with SK-MEL-5 melanoma, 0.000453 µM and 0.00141 µM; in the experiment on MDA-MB-231 breast it was 0.00402 µM; in the experiment on OVCAR-5 ovarian it was 55.8 µM; with TK-10 renal, 36.9 µM. For the same compound, the GI50 is 0.00262 µM in the experiment on HS 578T breast, 0.000452 µM with HCT-15 colon, 0.0244 µM in the experiment with MCF7 breast and 0.0951 µM in the experiment on HCC-2998 colon. Moreover, the TGI in the experiment with SK-MEL-28 melanoma was greater than 100 µM; in the experiment with SF-295 CNS, 0.00305 µM and 0.00613 µM; in the experiment with MDA-MB-231 breast, 0.00404 µM; in the experiment with OVCAR-5 ovarian, greater than 100 µM; with TK-10 renal, greater than 100 µM; in the experiment on HS 578T breast it was 0.00314 µM. For the same compound, in the experiment on HCC-2998 colon, the TGI is greater than 100 µM.
As to `CNCC(=O)NC(CO)C(=O)NC(CO)C(=O)NC1C(C(N)=O)OC(n2ccc(N)nc2=O)C(O)C1O` (configuration not stated), the GI50 in the experiment on SK-MEL-28 melanoma was 21.7 µg/mL; in the experiment with SF-295 CNS, 2.78 µg/mL; with SK-MEL-5 melanoma it was 16.1 µg/mL; in the experiment with MDA-MB-231 breast, greater than 50 µg/mL; in the experiment with OVCAR-5 ovarian it was 9.43 µg/mL; with TK-10 renal it was 11 µg/mL. Also, the GI50 in the experiment on HS 578T breast was 1.21 µg/mL; in the experiment with HCT-15 colon, 15.8 µg/mL; with MCF7 breast it was greater than 50 µg/mL; in the experiment on HCC-2998 colon, 20.6 µg/mL. For the same compound, the TGI was greater than 50 µg/mL with SK-MEL-28 melanoma; 17 µg/mL with SF-295 CNS; greater than 50 µg/mL in the experiment with SK-MEL-5 melanoma; greater than 50 µg/mL with MDA-MB-231 breast; greater than 50 µg/mL in the experiment on OVCAR-5 ovarian; greater than 50 µg/mL with TK-10 renal. The TGI in the experiment with HS 578T breast is 4.42 µg/mL; in the experiment with HCT-15 colon, greater than 50 µg/mL; in the experiment on MCF7 breast it was greater than 50 µg/mL; with HCC-2998 colon, greater than 50 µg/mL.
As to `O=C(N/N=C/c1cc(Cl)ccc1O)c1ccccc1Nc1ccnc(C(F)(F)F)c1`, the GI50 is 0.389 µM with SK-MEL-28 melanoma; 0.613 µM in the experiment on SF-295 CNS; 0.57 µM in the experiment on SK-MEL-5 melanoma; 0.54 µM in the experiment on MDA-MB-231 breast; 1.67 µM in the experiment on OVCAR-5 ovarian; 0.813 µM with TK-10 renal. The GI50 was 1.15 µM in the experiment with HS 578T breast, 0.152 µM in the experiment with HCT-15 colon, 0.351 µM in the experiment with MCF7 breast and 0.476 µM with HCC-2998 colon. For the same compound, the TGI with SK-MEL-28 melanoma was 15.1 µM; with SF-295 CNS, 13.2 µM; in the experiment on SK-MEL-5 melanoma, 5.33 µM; in the experiment on MDA-MB-231 breast, 21.1 µM; with OVCAR-5 ovarian it was 25.6 µM; in the experiment with TK-10 renal, greater than 48 µM. Also, the TGI in the experiment on HS 578T breast was 10.5 µM; in the experiment on HCT-15 colon, 13.6 µM; with MCF7 breast it was 30.3 µM; in the experiment on HCC-2998 colon it was 17.1 µM.
